{"source": "paper PMC10791743", "about": "“Selective CK1α degraders exert antiproliferative activity against a broad range of human cancer cell lines” (Nature Communications, 2024)", "assay_in_all_cases": "cells", "design_in_all_cases": "Oncolines panel cell viability, ATPlite 1Step luminescence, duplicate 9-point dose response, IC50", "key": {"A-704": {"test_system": "A-704", "conditions": "Homo sapiens, A704; 72 h viability; read-out: SJ3149", "protocol": "(§1) Cell viability assays were performed as previously described. In brief, cells were seeded in a 384-well plate at an optimized density. The starting cell number was determined after 24 h incubation by adding ATPlite 1Step (Perkin Elmer, Groningen, the Netherlands) to each well and recording luminescence on an Envision multimode reader (Perkin Elmer, Waltham, MA). After the addition of a duplicate 9-point dilution series of SJ3149, cells were incubated for another 72 h, followed by cell counting using ATPlite 1Step. The dilution series ranged from 3.2 to 31,600 nM or was diluted 100-fold for the most sensitive cell lines to ideally capture the complete dose–response curve. Percentage viability was determined at each compound concentration by relating the observed signal to a vehicle-treated control, that is, medium containing 0.4% (v/v) DMSO. Compound IC50 values were calculated by fitting a 4-parameter logistic curve to the percentage viability values using IDBS XLfit5 (IDBS, Guildford, UK). The IC50 was limited to the maximum tested compound concentration when the IC50 exceeded the maximum tested concentration. […] To evaluate the compound’s effect and potential therapeutic application across a diverse range of human cancers, we profiled SJ3149 in Oncolines® panel consisting of 115 human cancer cell lines, of which 86 were solid tumor and 29 hematologic cell lines, including MOLM-13. Effect on cell viability was monitored using ATPLite™ (Perkin Elmer), which measures intracellular ATP content as an indirect readout of cell number, like CellTiter Glo."}, "AP-1060": {"test_system": "AP-1060", "conditions": "72 h viability; read-out: SJ3149", "protocol": "as §1"}, "COLO 829": {"test_system": "COLO 829", "conditions": "Homo sapiens, COLO-829; 72 h viability; read-out: SJ3149", "protocol": "as §1"}, "DB": {"test_system": "DB", "conditions": "Homo sapiens, DB; 72 h viability; read-out: SJ3149", "protocol": "as §1"}, "HT": {"test_system": "HT", "conditions": "Homo sapiens, HT; 72 h viability; read-out: SJ3149", "protocol": "as §1"}, "Hs 578T": {"test_system": "Hs 578T", "conditions": "Homo sapiens, Hs-578T; 72 h viability; read-out: SJ3149", "protocol": "as §1"}, "LS411N": {"test_system": "LS411N", "conditions": "Homo sapiens, LS-411N; 72 h viability; read-out: SJ3149", "protocol": "as §1"}, "MG-63": {"test_system": "MG-63", "conditions": "Homo sapiens, MG-63; 72 h viability; read-out: SJ3149", "protocol": "as §1"}, "MeWo": {"test_system": "MeWo", "conditions": "Homo sapiens, MeWo; 72 h viability; read-out: SJ3149", "protocol": "as §1"}, "NCI-H82": {"test_system": "NCI-H82", "conditions": "Homo sapiens, NCI-H82; 72 h viability; read-out: SJ3149", "protocol": "as §1"}, "OVCAR-3": {"test_system": "OVCAR-3", "conditions": "Homo sapiens, OVCAR-3; 72 h viability; read-out: SJ3149", "protocol": "as §1"}, "PFSK-1": {"test_system": "PFSK-1", "conditions": "Homo sapiens, PFSK-1; 72 h viability; read-out: SJ3149", "protocol": "as §1"}, "SHP-77": {"test_system": "SHP-77", "conditions": "Homo sapiens, SHP77; 72 h viability; read-out: SJ3149", "protocol": "as §1"}, "SNU-5": {"test_system": "SNU-5", "conditions": "Homo sapiens, SNU-5; 72 h viability; read-out: SJ3149", "protocol": "as §1"}, "SNU-C2B": {"test_system": "SNU-C2B", "conditions": "Homo sapiens, SNU-C2B; 72 h viability; read-out: SJ3149", "protocol": "as §1"}, "SW620": {"test_system": "SW620", "conditions": "Homo sapiens, SW-620; 72 h viability; read-out: SJ3149", "protocol": "as §1"}, "SW948": {"test_system": "SW948", "conditions": "Homo sapiens, SW948; 72 h viability; read-out: SJ3149", "protocol": "as §1"}, "T24": {"test_system": "T24", "conditions": "Homo sapiens, T-24; 72 h viability; read-out: SJ3149", "protocol": "as §1"}, "TCCSUP": {"test_system": "TCCSUP", "conditions": "Homo sapiens, TCC-SUP; 72 h viability; read-out: SJ3149", "protocol": "as §1"}, "U-118 MG": {"test_system": "U-118 MG", "conditions": "Homo sapiens, U-118-MG; 72 h viability; read-out: SJ3149", "protocol": "as §1"}}, "note": "pIC50: −log10 of the molar value."}
{"smiles": "O=C1CCC(N2Cc3cc(Nc4noc5ccccc45)ccc3C2=O)C(=O)N1", "note": "(centres unmarked) [SJ3149]", "values": [{"measurement": "pIC50", "setting": "A-704", "value": "< 4.50"}, {"measurement": "pIC50", "setting": "AP-1060", "value": 8.87}, {"measurement": "pIC50", "setting": "COLO 829", "value": "< 4.50"}, {"measurement": "pIC50", "setting": "DB", "value": "< 4.50"}, {"measurement": "pIC50", "setting": "HT", "value": "< 4.50"}, {"measurement": "pIC50", "setting": "Hs 578T", "value": "< 4.50"}, {"measurement": "pIC50", "setting": "LS411N", "value": "< 4.50"}, {"measurement": "pIC50", "setting": "MG-63", "value": "< 4.50"}, {"measurement": "pIC50", "setting": "MeWo", "value": "< 4.50"}, {"measurement": "pIC50", "setting": "NCI-H82", "value": "< 4.50"}, {"measurement": "pIC50", "setting": "OVCAR-3", "value": "< 4.50"}, {"measurement": "pIC50", "setting": "PFSK-1", "value": "< 4.50"}, {"measurement": "pIC50", "setting": "SHP-77", "value": "< 4.50"}, {"measurement": "pIC50", "setting": "SNU-5", "value": "< 4.50"}, {"measurement": "pIC50", "setting": "SNU-C2B", "value": "< 4.50"}, {"measurement": "pIC50", "setting": "SW620", "value": "< 4.50"}, {"measurement": "pIC50", "setting": "SW948", "value": "< 4.50"}, {"measurement": "pIC50", "setting": "T24", "value": "< 4.50"}, {"measurement": "pIC50", "setting": "TCCSUP", "value": "< 4.50"}, {"measurement": "pIC50", "setting": "U-118 MG", "value": "< 4.50"}]}
